Measurements from patent publication US12172983B2, “EGFR inhibitors” (Blueprint Medicines Corporation, priority 2019, dated 2024).
Where two headings read alike, the source gives them in different places.

Experiments:
[1] = target: T1, EGFR (L858R T790M C797S) (Homo sapiens, UniProt P00533, C797S/L858R/T790M); test: Biochemical EGFR inhibition assay (Caliper mobility shift), EGFR LRTMCS mutant; details: inhibitory activity against EGFR LRTMCS mutant; apparent IC50; read-out: Ext Enz LRTMCS
T1 construct: purchased SignalChem E10-122VG
In short: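 Caliper mobility shift read-out: product and substrate peptides separated by electrophoresis and quantified. Reactions at 25° C. taken to 10–20% peptide phosphorylation, quenched with 35 mM EDTA. Apparent IC50 from percent activity vs log [compound].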

[2] = system: phosphorylation of EGFR (Tyr1068) in NCI-H1975 cell line that harbors the EGFR L858R T790M mutations; test: NCI-H1975 pEGFR AlphaLISA assay; format: cell-based; details: 4-5 hours incubation, read-out: Ext pEGFR H1975
In short: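 Phospho-EGFR Tyr1068 AlphaLISA readout: lysates taken from compound-treated H1975 cells (L858R T790M EGFR) after a 4-5 h exposure at 37 °C. Cells had adhered overnight beforehand. IC50 derived by plotting % pEGFR inhibition against log compound concentration.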

[3] = Homo sapiens, NCI-H1975, inhibition of phosphorylation of mutant EGFR in NCI-H1975 cells

T1 sequence (P00533 25-1210 T790M/C797S/L858R): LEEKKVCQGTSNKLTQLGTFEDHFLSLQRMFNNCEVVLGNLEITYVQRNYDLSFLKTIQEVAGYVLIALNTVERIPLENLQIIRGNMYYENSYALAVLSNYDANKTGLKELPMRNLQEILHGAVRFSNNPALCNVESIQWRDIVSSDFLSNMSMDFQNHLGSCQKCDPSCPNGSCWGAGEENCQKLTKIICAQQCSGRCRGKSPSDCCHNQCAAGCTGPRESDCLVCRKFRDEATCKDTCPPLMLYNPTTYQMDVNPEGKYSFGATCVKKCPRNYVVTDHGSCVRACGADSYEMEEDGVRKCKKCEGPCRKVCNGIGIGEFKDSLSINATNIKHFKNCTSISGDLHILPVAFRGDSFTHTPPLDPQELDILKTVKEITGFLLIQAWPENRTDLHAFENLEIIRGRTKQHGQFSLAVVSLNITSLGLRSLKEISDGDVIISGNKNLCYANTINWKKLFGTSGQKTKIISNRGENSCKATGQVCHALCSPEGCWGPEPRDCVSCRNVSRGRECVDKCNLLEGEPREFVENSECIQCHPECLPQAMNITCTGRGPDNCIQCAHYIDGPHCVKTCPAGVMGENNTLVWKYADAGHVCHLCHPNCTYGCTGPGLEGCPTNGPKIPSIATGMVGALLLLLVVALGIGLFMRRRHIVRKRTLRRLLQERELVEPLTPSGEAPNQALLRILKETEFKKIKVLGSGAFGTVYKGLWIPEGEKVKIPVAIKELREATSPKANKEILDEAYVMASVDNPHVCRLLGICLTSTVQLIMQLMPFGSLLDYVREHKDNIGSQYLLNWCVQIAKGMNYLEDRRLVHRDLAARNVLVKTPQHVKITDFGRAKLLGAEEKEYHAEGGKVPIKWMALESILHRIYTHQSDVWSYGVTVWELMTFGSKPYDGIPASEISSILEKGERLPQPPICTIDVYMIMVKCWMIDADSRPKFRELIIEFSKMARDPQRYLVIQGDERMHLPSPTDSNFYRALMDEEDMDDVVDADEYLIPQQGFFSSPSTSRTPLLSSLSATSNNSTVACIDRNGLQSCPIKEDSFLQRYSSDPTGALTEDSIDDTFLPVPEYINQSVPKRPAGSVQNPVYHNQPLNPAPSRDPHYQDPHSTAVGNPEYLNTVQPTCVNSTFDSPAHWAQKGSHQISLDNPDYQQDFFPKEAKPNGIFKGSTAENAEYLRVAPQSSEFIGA

SMILES	IC50 [1] [nM]	IC50 [2, 3] [nM]	IC50 ([2]; inhibition of phosphorylation of mutant EGFR in NCI-H1975 cells) [nM]
CO[C@@H]1CCN(c2nccc(Nc3cc4c(C(C)C)ccc(N5C[C@H](CS(C)(=O)=O)[C@H]5C)c4cn3)n2)C[C@H]1C#N (single isomer, unassigned) [Compound 166, (3S,4R)-1-[4-({8-[(2R,3S)-3-(methanesulfonylmethyl)-2-methylazetidin-1-yl]-5-(propan-2-yl)isoquinolin-3-yl}amino)pyrimidin-2-yl]-4-methoxypiperidine-3-carbonitrile or (3R,4S)-1-[4-({8-[(2R,3S)-3-(methanesulfonylmethyl)-2-methylazetidin-1-yl]-5-(propan-2-yl)isoquinolin-3-yl}amino)pyrimidin-2-yl]-4-methoxypiperidine-3-carbonitrile]	30.1 to 100	30.1 to 50	–
CCS(=O)(=O)C[C@H]1CN(c2ncc(C(C)C)c3cc(Nc4ccnc(N5CC[C@@H](OCCO)[C@@H](F)C5)n4)ncc23)[C@@H]1C [Compound 249, 2-{[(3S,4R)-1-[4-({8-[(2R,3S)-3-[(ethanesulfonyl)methyl]-2-methylazetidin-1-yl]-5-(propan-2-yl)-2,7-naphthyridin-3-yl}amino)pyrimidin-2-yl]-3-fluoropiperidin-4-yl]oxy}ethan-1-ol]	≤ 15	≤ 10	–
CC(C)c1ccc(N2C[C@H](CS(C)(=O)=O)[C@H]2C)c2cnc(Nc3ccnc(N4CC[C@@H](OCC(C)(C)O)[C@@H](F)C4)n3)cc12 [Compound 256, 1-{[(3S,4R)-3-fluoro-1-[4-({8-[(2R,3S)-3-(methanesulfonylmethyl)-2-methylazetidin-1-yl]-5-(propan-2-yl)isoquinolin-3-yl}amino)pyrimidin-2-yl]piperidin-4-yl]oxy}-2-methylpropan-2-ol]	20.1 to 30	≤ 10	–
CCS(=O)(=O)C[C@H]1CN(c2ncc(C(C)C)c3cc(Nc4ccnc(N5CC[C@H](OCCO)[C@H](F)C5)n4)ncc23)[C@@H]1C [Compound 250, 2-{[(3R,4S)-1-[4-({8-[(2R,3S)-3-[(ethanesulfonyl)methyl]-2-methylazetidin-1-yl]-5-(propan-2-yl)-2,7-naphthyridin-3-yl}amino)pyrimidin-2-yl]-3-fluoropiperidin-4-yl]oxy}ethan-1-ol]	≤ 15	≤ 10	–
CO[C@@H]1[C@H](F)CN(c2nccc(Nc3cc4c(C(C)C)ccc(N5CC(CS(C)(=O)=O)C5)c4cn3)n2)C[C@@H]1O (racemic) [Compound 146, (3S,4S,5R)-5-fluoro-1-(4-((5-isopropyl-8-(3-((methylsulfonyl)methyl)azetidin-1-yl)isoquinolin-3-yl)amino)pyrimidin-2-yl)-4-methoxypiperidin-3-ol and (3R,4R,5S)-5-fluoro-1-(4-((5-isopropyl-8-(3-((methylsulfonyl)methyl)azetidin-1-yl)isoquinolin-3-yl)amino)pyrimidin-2-yl)-4-methoxypiperidin-3-ol]	15.1 to 20	10.1 to 20	–
CO[C@@H]1[C@H](O)CN(c2nccc(Nc3cc4c(C(C)C)ccc(N5C[C@H](CS(C)(=O)=O)[C@H]5C)c4cn3)n2)CC1(F)F (single isomer, unassigned) [Compound 232, (3S,4S)-5,5-difluoro-1-(4-(5-isopropyl-8-((2R,3S)-2-methyl-3-(methylsulfonylmethyl)azetidin-1-yl)isoquinolin-3-ylamino)pyrimidin-2-yl)-4-methoxypiperidin-3-ol or (3R,4R)-5,5-difluoro-1-(4-(5-isopropyl-8-((2R,3S)-2-methyl-3-(methylsulfonylmethyl)azetidin-1-yl)isoquinolin-3-ylamino)pyrimidin-2-yl)-4-methoxypiperidin-3-ol]	30.1 to 100	≤ 10	–
CC(C)c1ccc(N2C[C@H](CS(C)(=O)=O)[C@H]2C)c2cnc(Nc3ccnc(N4CC[C@H](OCCO)C(F)(F)C4)n3)cc12 (single isomer, unassigned) [Compound 252]	20.1 to 30	≤ 10	–
CC(C)c1ccc(N2CC(CS(C)(=O)=O)C2)c2cnc(Nc3ccnc(N4CC[C@](F)([C@@H](C)O)C4)n3)cc12 (single isomer, unassigned) [Compound 58, (1R)-1-[(3R)-3-fluoro-1-[4-({8-[3-(methanesulfonylmethyl)azetidin-1-yl]-5-(propan-2-yl)isoquinolin-3-yl}amino)pyrimidin-2-yl]pyrrolidin-3-yl]ethan-1-ol or (1S)-1-[(3S)-3-fluoro-1-[4-({8-[3-(methanesulfonylmethyl)azetidin-1-yl]-5-(propan-2-yl)isoquinolin-3-yl}amino)pyrimidin-2-yl]pyrrolidin-3-yl]ethan-1-ol]	15.1 to 20	20.1 to 30	–
CC(C)c1ccc(N2C[C@H](CS(C)(=O)=O)[C@H]2C)c2cnc(Nc3ccnc(N4CCN(C)CC4)n3)cc12 [Compound 16, 8-[(2R,3S)-3-(methanesulfonylmethyl)-2-methylazetidin-1-yl]-N-[2-(4-methylpiperazin-1-yl)pyrimidin-4-yl]-5-(propan-2-yl)isoquinolin-3-amine]	20.1 to 30	10.1 to 20	–

Further lines, results first:

IC50 [1] [nM]	IC50 [2, 3] [nM]	IC50 ([2]; inhibition of phosphorylation of mutant EGFR in NCI-H1975 cells) [nM]	SMILES
≤ 15	≤ 10	–	CCS(=O)(=O)C[C@H]1CN(c2cnc(C(C)C)c3cc(Nc4ccnc(N5CC[C@@H](OCCO)[C@@H](F)C5)n4)ncc23)[C@@H]1C [Compound 298, 2-{[(3S,4R)-1-[4-({8-[(2R,3S)-3-[(ethanesulfonyl)methyl]-2-methylazetidin-1-yl]-5-(propan-2-yl)-2,6-naphthyridin-3-yl}amino)pyrimidin-2-yl]-3-fluoropiperidin-4-yl]oxy}ethan-1-ol]
≤ 15	≤ 10	–	CC(C)c1ccc(N2CC(CS(C)(=O)=O)C2)c2cnc(Nc3ccnc(N4C[C@H](F)[C@H](O)C(C)(C)C4)n3)cc12 (single isomer, unassigned) [Compound 109, (4S,5R)-5-fluoro-1-[4-({8-[3-(methanesulfonylmethyl)azetidin-1-yl]-5-(propan-2-yl)isoquinolin-3-yl}amino)pyrimidin-2-yl]-3,3-dimethylpiperidin-4-ol or (4R,5S)-5-fluoro-1-[4-({8-[3-(methanesulfonylmethyl)azetidin-1-yl]-5-(propan-2-yl)isoquinolin-3-yl}amino)pyrimidin-2-yl]-3,3-dimethylpiperidin-4-ol]
≤ 15	≤ 10	–	CO[C@H]1CCN(c2nccc(Nc3cc4c(C(C)C)ccc(N5CC(CS(C)(=O)=O)C5)c4cn3)n2)C[C@H]1F [Compound 63, N-(2-((3R,4S)-3-fluoro-4-methoxypiperidin-1-yl)pyrimidin-4-yl)-5-isopropyl-8-(3-(methylsulfonylmethyl)azetidin-1-yl)isoquinolin-3-amine]
≤ 15	≤ 10	–	[2H]C([2H])([2H])O[C@H]1CCN(c2nccc(Nc3cc4c(C5CC5)ccc(N5C[C@H](CS(C)(=O)=O)[C@H]5C)c4cn3)n2)C[C@H]1F [Compound 316, 5-cyclopropyl-N-(2-((3R,4S)-3-fluoro-4-(^2H3)piperidin-1-yl)pyrimidin-4-yl)-8-((2R,3S)-2-methyl-3-((methylsulfonyl)methyl)azetidin-1-yl)isoquinolin-3-amine]
≤ 15	10.1 to 20	–	CC(C)c1ccc(N2C[C@H](CS(C)(=O)=O)[C@H]2C)c2cnc(Nc3ccnc(N4CC[C@@H](OCCN)[C@@](C)(F)C4)n3)cc12 [Compound 241, N-{2-[(3S,4R)-4-(2-aminoethoxy)-3-fluoro-3-methylpiperidin-1-yl]pyrimidin-4-yl}-8-[(2R,3S)-3-(methanesulfonylmethyl)-2-methylazetidin-1-yl]-5-(propan-2-yl)isoquinolin-3-amine]
≤ 15	–	10.1 to 20	CO[C@@H]1[C@H](O)CN(c2nccc(Nc3cc4c(C(C)C)cnc(N5C[C@H](CS(C)(=O)=O)[C@H]5C)c4cn3)n2)CC1(F)F (single isomer, unassigned) [Compound 236, (3S,4S)-5,5-difluoro-1-[4-({8-[(2R,3S)-3-(methanesulfonylmethyl)-2-methylazetidin-1-yl]-5-(propan-2-yl)-2,7-naphthyridin-3-yl}amino)pyrimidin-2-yl]-4-methoxypiperidin-3-ol or (3R,4R)-5,5-difluoro-1-[4-({8-[(2R,3S)-3-(methanesulfonylmethyl)-2-methylazetidin-1-yl]-5-(propan-2-yl)-2,7-naphthyridin-3-yl}amino)pyrimidin-2-yl]-4-methoxypiperidin-3-ol]
≤ 15	≤ 10	–	CC(C)c1ccc(N2C[C@H](CS(C)(=O)=O)[C@H]2C)c2cnc(Nc3ccnc(N4C[C@@H](F)[C@@H](O)[C@](C)(F)C4)n3)cc12 (single isomer, unassigned) [Compound 212, (3R,4R,5R)-3,5-difluoro-1-[4-({8-[(2R,3S)-3-(methanesulfonylmethyl)-2-methylazetidin-1-yl]-5-(propan-2-yl)isoquinolin-3-yl}amino)pyrimidin-2-yl]-3-methylpiperidin-4-ol or (3S,4S,5S)-3,5-difluoro-1-[4-({8-[(2R,3S)-3-(methanesulfonylmethyl)-2-methylazetidin-1-yl]-5-(propan-2-yl)isoquinolin-3-yl}amino)pyrimidin-2-yl]-3-methylpiperidin-4-ol]
≤ 15	10.1 to 20	–	CCS(=O)(=O)CC1CN(c2ccc(C(C)C)c3cc(Nc4ccnc(N5CC[C@](C)(O)[C@H](F)C5)n4)ncc23)C1 (single isomer, unassigned) [Compound 277]
